From ChEMBL document CHEMBL1141837, “New steroidal alkaloids from the roots of buxus sempervirens” (1999)
Activity calls are given as the source filed them. The rule behind the calls is not given here.

Experiments:
Type in all cases: functional
Lemna minor [1] = assay: Phytotoxicity against Lemna minor L. at 50 ppm
Lemna minor [2] = assay: Phytotoxicity against Lemna minor L. at 500 ppm
Lemna minor [3] = assay: Phytotoxicity against Lemna minor L. at 5 ppm

Compound	Activity (Lemna minor [1])	Activity (Lemna minor [2])	Activity (Lemna minor [3])
CN[C@H]1CC[C@]23C[C@]24CC[C@]2(C)C(=O)CC[C@@]2(C)[C@@H]4CC[C@H]3C1(C)C	inactive	inactive	inactive
C[C@@H]([C@H]1CC[C@@]2(C)[C@@H]3CC[C@@H]4C(=CC3=CC[C@]12C)CC[C@H](N)C4(C)C)N(C)C	inactive	inactive	inactive
CC(=O)O[C@H]1C[C@@H]2[C@H](CC[C@]3(C)[C@@H]([C@H](C)N(C)C)CC[C@@]23C)CC2=C[C@@H](O)[C@H](NC(=O)c3ccccc3)C(C)(C)[C@@H]21	inactive	inactive	inactive
CC(=O)O[C@H]1C[C@@H]2[C@@]3(CC4=C[C@@H](OC(C)=O)[C@H](NC(=O)c5ccccc5)C(C)(C)[C@@H]41)O[C@H]3C[C@]1(C)[C@@H]([C@H](C)N(C)C)CC[C@@]21C	71%	86%	57%
CC(=O)O[C@H]1C[C@@H]2[C@@]3(CC4=C[C@@H](O)[C@H](NC(=O)c5ccccc5)C(C)(C)[C@@H]41)O[C@H]3C[C@]1(C)[C@@H]([C@H](C)N(C)C)CC[C@@]21C	57%	86%	57%
